{"source": "paper PMC7096432", "about": "“Transport and kinase activities of CbrA of Pseudomonas putida KT2440” (Scientific Reports, 2020)", "molecules": {"B1": {"name": "CbrA (Pseudomonas putida KT2440) (protein)", "chain": "MPMSFSLTQMILISAGYLMVLFGVAWISERGLIPRSIIRHPLTYTLSLGVYASAWAFYGSVGLAYQYGYGFLACYLGVSGAFLLAPVLLYPILKITRTYQLSSLADLLAFRFRSTWAGALTTIIMLIGVLPLLALQIQAVADSISILTGEPVKARVAFAFCTLIILFTIFFGSRHIATREKHEGLVFAIAFESVIKLLALGGIGLYALYGVFGGPHELEVWLLQNQTALAALHTPLQEGPWRTLLLVFFASAIVMPHMYHMAFTENLNPRSLVSASWGLPLFLLLMSLAVPLVLWAGLRLGASTNPEYFTLGLGIAANNQALALLAYIGGLSAASGLIIVTTLALSGMALNHLVLPLYQPPAEGNIYRWLKWTRRALIVAIITAGFMFYLSQNYHQSLANLGIVAFVATLQFLPGVLSVLYWPTANRRGFIAGLLAGTLVWMVTMLLPLLGNLQGFYIPLLDMIYVLDDTSWHMAAIASLAANVLLFTLISLFTNASTEEVSAAEACAVDNVRRPQRRELHAASPQEFATQLAKPLGAKAAQKEVEQALRDLYLPFDERRPYALRRLRDRIEANLSGLMGPSVAQDMVETFLPYKSGNENYVTEDIHFIESRLEDYHSRLTGLAAELDALRRYHRQTLQELPMGVCSLAKDQEILMWNKAMEELTGIAAKHVVGSRLVTIDEPWRGLLQGFINVPDEHLHKQRLALDGQPRWLNLHKAAIDEPLAPGNSGLVLLVEDLTETQALEDKLVHSERLASIGRLAAGVAHEIGNPITGIACLAQNLREEREDDGEIIELSSQILDQTKRVSRIVQSLMSFAHAGGSHQNSEEPVCLAEVAQDAIGLLALNRRNFEVQFFNLCDPDHWAEGDPQRLAQVLINLLSNARDASPPGSAVRVRSEVNEHTVDLIVEDEGSGIPKNIMDRLFEPFFTTKDPGEGTGLGLALVYSIVEEHYGQITIDSPADIERQRGTRIRVTLPRHVVATSPEIRDRREN", "notes": "full length, 109 kDa predicted"}, "B2": {"name": "SLC5 domain of CbrA (Pseudomonas putida KT2440) (protein)", "chain": "MSFSLTQMILISAGYLMVLFGVAWISERGLIPRSIIRHPLTYTLSLGVYASAWAFYGSVGLAYQYGYGFLACYLGVSGAFLLAPVLLYPILKITRTYQLSSLADLLAFRFRSTWAGALTTIIMLIGVLPLLALQIQAVADSISILTGEPVKARVAFAFCTLIILFTIFFGSRHIATREKHEGLVFAIAFESVIKLLALGGIGLYALYGVFGGPHELEVWLLQNQTALAALHTPLQEGPWRTLLLVFFASAIVMPHMYHMAFTENLNPRSLVSASWGLPLFLLLMSLAVPLVLWAGLRLGASTNPEYFTLGLGIAANNQALALLAYIGGLSAASGLIIVTTLALSGMALNHLVLPLYQPPAEGNIYRWLKWTRRALIVAIITAGFMFYLSQNYHQSLANLGIVAFVATLQFLPGVLSVLYWPTANRRGFIAGLLAGTLVWMVTMLLPLLGNLQGFYIPLLDMIYVLDDTSWHMAAIASLAANVLLFTLISLFTNASTEEVSAAEACAVDNVRRPQRRELHAASPQEFATQLAKPLGAKAAQKE", "notes": "SLC5 transporter domain, residues 3-544"}}, "key": {"CbrAΔSLC5": {"molecular_target": "T1, CbrAΔSLC5 (Pseudomonas putida, UniProt Q88DX3)", "T1 construct": "gene PP_4695; cytoplasmic domains, residues 614-992, C-terminal 12His tag, 44 kDa predicted, E. coli C41, Ni-NTA purified", "T1 sequence (Q88DX3 614-991)": "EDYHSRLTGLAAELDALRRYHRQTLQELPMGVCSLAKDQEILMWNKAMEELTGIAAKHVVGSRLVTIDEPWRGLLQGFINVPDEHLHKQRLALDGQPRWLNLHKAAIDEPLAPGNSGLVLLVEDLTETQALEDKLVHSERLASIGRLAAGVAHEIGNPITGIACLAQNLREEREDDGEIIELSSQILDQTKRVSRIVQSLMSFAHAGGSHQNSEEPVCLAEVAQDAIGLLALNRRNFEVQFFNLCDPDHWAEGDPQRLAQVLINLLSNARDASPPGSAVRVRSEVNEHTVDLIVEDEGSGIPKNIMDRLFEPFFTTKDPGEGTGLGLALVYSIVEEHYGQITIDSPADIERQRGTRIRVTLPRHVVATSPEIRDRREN", "assay": "autophosphorylation, SDS-PAGE", "format": "biochemical", "conditions": "50 mM Tris-HCl pH 7.5, 10 mM MgCl2, 360 mM KCl, 30 °C; labelled compound"}, "CbrA": {"molecular_target": "T2, CbrA (Pseudomonas putida, UniProt Q88DX3)", "T2 construct": "gene PP_4695; full length, 109 kDa predicted", "T2 sequence (Q88DX3 1-991)": "B1 chain", "assay": "DRaCALA, E. coli C43 membrane vesicles", "format": "binding", "conditions": "1.35 µM ligand, 100 mM KPi pH 7.5, 25 °C; labelled compound"}, "PAS domain of CbrA [1]": {"molecular_target": "T3, PAS domain of CbrA (Pseudomonas putida, UniProt Q88DX3)", "T3 construct": "gene PP_4695; PAS domain, residues 614-745, C-terminal 12His tag, E. coli BL21 / C43, Ni-NTA purified", "T3 sequence (Q88DX3 614-745)": "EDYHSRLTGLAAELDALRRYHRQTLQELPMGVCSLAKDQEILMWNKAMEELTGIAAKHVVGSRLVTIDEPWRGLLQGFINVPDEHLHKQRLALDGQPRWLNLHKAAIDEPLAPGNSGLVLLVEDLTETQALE", "assay": "thermal shift titration, nanoDSF", "format": "binding"}, "PAS domain of CbrA [2]": {"molecular_target": "T3, PAS domain of CbrA", "assay": "thermal shift, nanoDSF", "format": "binding", "conditions": "read-out: dTm at 1 mM"}, "SLC5 domain of CbrA": {"molecular_target": "T4, SLC5 domain of CbrA (Pseudomonas putida, UniProt Q88DX3)", "T4 construct": "gene PP_4695; SLC5 transporter domain, residues 3-544", "T4 sequence (Q88DX3 3-544)": "B2 chain", "assay": "DRaCALA, E. coli C43 membrane vesicles", "format": "binding", "conditions": "1.35 µM ligand, 100 mM KPi pH 7.5, 25 °C; labelled compound"}, "[3]": {"substrate": "N[C@@H](Cc1c[nH]cn1)C(=O)O", "assay": "3H-L-histidine uptake into P. putida LW1 cells", "format": "cell-based, Pseudomonas putida", "conditions": "transport, 100 mM Tris/MES pH 6.0, 25 °C, energized with 10 mM D-lactate, background subtracted, labelled compound"}}, "data": [{"molecule": "Nc1ncnc2c1ncn2[C@@H]1O[C@H](COP(=O)(O)OP(=O)(O)OP(=O)(O)O)[C@@H](O)[C@H]1O", "note": "[γ-32P-ATP]", "values": [{"measurement": "autophosphorylation, 32P SDS-PAGE", "setting": "CbrAΔSLC5", "result": "catalyzed both autophosphorylation and transfer of the phosphoryl group to CbrB"}]}, {"molecule": "N[C@@H](Cc1cnc[nH]1)C(=O)O", "note": "[L-histidine]", "values": [{"measurement": "bound fraction", "setting": "CbrA", "result": "evidence for binding of ^3H-L-histidine to CbrA and the SLC5 domain"}, {"measurement": "Kd", "setting": "PAS domain of CbrA [1]", "result": "43 ± 13", "unit": "µM"}, {"measurement": "ΔTm at 1000 µM", "setting": "PAS domain of CbrA [2]", "result": "0.73 ± 0.13", "unit": "°C"}, {"measurement": "bound fraction", "setting": "SLC5 domain of CbrA", "result": "evidence for binding of ^3H-L-histidine to CbrA and the SLC5 domain"}]}, {"molecule": "B1", "values": [{"measurement": "Km", "setting": "[3]", "result": "0.7 ± 0.2", "unit": "µM"}]}, {"molecule": "B2", "values": [{"measurement": "Km", "setting": "[3]", "result": "0.58 ± 0.18", "unit": "µM"}]}]}
